Reference: patent publication US9718790B2, “Triazine derivative and pharmaceutical composition having an analgesic activity comprising the same” (SHIONOGI & CO., LTD., priority 2010, dated 2017)
pIC50: −log10 of the molar value.

Target: human P2X3 receptor (Homo sapiens (Human), UniProt P56373)
Assay: Evaluation of human P2X3 receptor inhibitory activity (Fluo-3 calcium fluorescence, FDSS 3000, ATP stimulation);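 also: stimulus was 50 nM ATP with fluorescence followed for 3 min, and the response per well was peak post-ATP fluorescence divided by the reading at measurement start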
Format: cell-based
Details: C6BU-1 cells stably expressing human P2X3 receptor

human P2X3 receptor, sequence (P56373 whole entry): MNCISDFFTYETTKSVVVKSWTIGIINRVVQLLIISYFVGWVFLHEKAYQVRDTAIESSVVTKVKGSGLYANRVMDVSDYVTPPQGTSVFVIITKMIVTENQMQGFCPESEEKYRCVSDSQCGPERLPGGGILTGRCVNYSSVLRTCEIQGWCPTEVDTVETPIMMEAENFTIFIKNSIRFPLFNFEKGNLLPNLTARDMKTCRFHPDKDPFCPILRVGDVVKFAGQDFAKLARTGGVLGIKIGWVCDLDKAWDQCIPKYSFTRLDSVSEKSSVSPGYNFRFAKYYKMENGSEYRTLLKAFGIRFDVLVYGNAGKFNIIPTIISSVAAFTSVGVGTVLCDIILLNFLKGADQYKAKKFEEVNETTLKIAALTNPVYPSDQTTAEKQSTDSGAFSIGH

| SMILES | pIC50 |
| --- | --- |
| COC(=O)[C@@H](C)[C@@H](C)n1c(=O)[nH]/c(=N\c2cccc(C(F)(F)F)c2)n(Cc2ccc(Cl)cc2)c1=O [Compound I-1317] | 6.98 |
| COC(=O)[C@@H](C)Cn1c(=O)[nH]/c(=N\c2ccc3ncccc3c2)n(Cc2ccc(Cl)cc2)c1=O [Compound I-1318] | 6.26 |
| COC(=O)[C@@H](C)Cn1c(=O)[nH]/c(=N\c2ccc3nc(C)c(C)nc3c2)n(Cc2ccc(Cl)cc2)c1=O [Compound I-1320] | 6.44 |
| COC(=O)[C@@H](C)Cn1c(=O)[nH]/c(=N\c2ccc3nc(C)sc3c2)n(Cc2ccc(Cl)cc2)c1=O [Compound I-1321] | 8.15 |
| COC(=O)[C@H](C)[C@H](C)n1c(=O)[nH]/c(=N\c2ccc3nc(C)ccc3c2)n(Cc2ccc(Cl)cc2)c1=O [Compound I-1322] | 7.70 |
| COC(=O)[C@H](C)[C@H](C)n1c(=O)[nH]/c(=N\c2ccc3oc(C)cc3c2)n(Cc2ccc(Cl)cc2)c1=O [Compound I-1323] | 7.48 |
| COC(=O)[C@H](C)[C@H](C)n1c(=O)[nH]/c(=N\c2ccc3nc(C)ccc3c2)n(Cc2ccc(C)cc2)c1=O [Compound I-1324] | 8.05 |
| COC(=O)[C@H](C)[C@H](C)n1c(=O)[nH]/c(=N\c2ccc3oc(C)cc3c2)n(Cc2ccc(C)cc2)c1=O [Compound I-1325] | 7.55 |
| CCc1nc2ccc(/N=c3\[nH]c(=O)n(C[C@H](C)C(=O)OC)c(=O)n3Cc3ccc(Cl)cc3)cc2o1 [Compound I-1326] | 6.66 |
| CCCc1nc2ccc(/N=c3\[nH]c(=O)n(C[C@H](C)C(=O)OC)c(=O)n3Cc3ccc(Cl)cc3)cc2o1 [Compound I-1327] | 7.14 |
| CCOC(=O)CCn1c(=O)[nH]/c(=N\c2ccc(OC3CCC3)c(Cl)c2)n(Cc2ccc(C)cc2)c1=O [Compound I-1328] | 7.92 |
| COC(=O)[C@H](C)[C@H](C)n1c(=O)[nH]/c(=N\c2ccc(OCC(C)C)cc2)n(Cc2ccc(Cl)cc2)c1=O [Compound I-1329] | 7.31 |
| CCOC(=O)CCn1c(=O)[nH]/c(=N\c2ccc(OC3CCC3)c(Cl)c2)n(Cc2ccc(Cl)cc2)c1=O [Compound I-1330] | 8.05 |
| COC(=O)[C@H](C)[C@H](C)n1c(=O)[nH]/c(=N\c2ccc(OCC(C)C)cc2)n(Cc2ccc(C)cc2)c1=O [Compound I-1331] | 7.25 |
| Cc1ccc(Cn2c(=O)n(CCC(=O)O)c(=O)[nH]/c2=N\c2ccc(OC3CCC3)c(Cl)c2)cc1 [Compound I-1332] | 7.27 |
| O=C(O)CCn1c(=O)[nH]/c(=N\c2ccc(OC3CCC3)c(Cl)c2)n(Cc2ccc(Cl)cc2)c1=O [Compound I-1333] | 7.28 |
| Cc1ccc(Cn2c(=O)n([C@@H](C)[C@@H](C)C(=O)O)c(=O)[nH]/c2=N\c2ccc(OC(C)C)c(Br)c2)cc1 [Compound I-1334] | 7.96 |
| Cc1ccc(Cn2c(=O)n([C@@H](C)[C@@H](C)C(=O)O)c(=O)[nH]/c2=N\c2cccc(C(F)(F)F)c2)cc1 [Compound I-1335] | 7.52 |
| Cc1ccc(Cn2c(=O)n([C@H](C)[C@H](C)C(=O)O)c(=O)[nH]/c2=N\c2ccc(OC(C)C)cc2)cc1 [Compound I-1336] | 7.15 |
| Cc1ccc(Cn2c(=O)n([C@H](C)[C@H](C)C(=O)O)c(=O)[nH]/c2=N\c2ccc(OC(C)C)c(Cl)c2)cc1 [Compound I-1337] | 7.85 |
| Cc1ccc(Cn2c(=O)n([C@H](C)[C@H](C)C(=O)O)c(=O)[nH]/c2=N\c2ccc(OC(C)C)c(F)c2)cc1 [Compound I-1338] | 7.44 |

| SMILES | pIC50 |
| --- | --- |
| Cc1ccc(Cn2c(=O)n([C@H](C)[C@H](C)C(=O)O)c(=O)[nH]/c2=N\c2ccc(OC(C)C)c(C)c2)cc1 [Compound I-1339] | 7.52 |
| CCCOc1ccc(/N=c2\[nH]c(=O)n([C@H](C)[C@H](C)C(=O)O)c(=O)n2Cc2ccc(C)cc2)cc1 [Compound I-1340] | 7.24 |
| Cc1ccc(Cn2c(=O)n([C@H](C)[C@H](C)C(=O)O)c(=O)[nH]/c2=N\c2ccc(OCC3CC3)cc2)cc1 [Compound I-1341] | 7.44 |
| CC(C)Oc1ccc(/N=c2\[nH]c(=O)n([C@H](C)[C@H](C)C(=O)O)c(=O)n2Cc2ccc(Cl)cc2)cc1Cl [Compound I-1342] | 8.00 |
| CC(C)Oc1ccc(/N=c2\[nH]c(=O)n([C@H](C)[C@H](C)C(=O)O)c(=O)n2Cc2ccc(Cl)cc2)cc1F [Compound I-1343] | 7.46 |
| C[C@H](C(=O)O)[C@@H](C)n1c(=O)[nH]/c(=N\c2ccc(OCC3CC3)cc2)n(Cc2ccc(Cl)cc2)c1=O [Compound I-1344] | 7.48 |
| C[C@H](C(=O)O)[C@@H](C)n1c(=O)[nH]/c(=N\c2cccc(C(F)(F)F)c2)n(Cc2ccc(Cl)cc2)c1=O [Compound I-1345] | 7.16 |
| C[C@@H](Cn1c(=O)[nH]/c(=N\c2ccc3ncccc3c2)n(Cc2ccc(Cl)cc2)c1=O)C(=O)O [Compound I-1346] | 6.09 |
| Cc1nc2ccc(/N=c3\[nH]c(=O)n(C[C@H](C)C(=O)O)c(=O)n3Cc3ccc(Cl)cc3)cc2nc1C [Compound I-1348] | 6.04 |
| Cc1nc2ccc(/N=c3\[nH]c(=O)n(C[C@H](C)C(=O)O)c(=O)n3Cc3ccc(Cl)cc3)cc2s1 [Compound I-1349] | 7.82 |
| Cc1ccc2cc(/N=c3\[nH]c(=O)n([C@@H](C)[C@@H](C)C(=O)O)c(=O)n3Cc3ccc(Cl)cc3)ccc2n1 [Compound I-1350] | 7.55 |
| Cc1cc2cc(/N=c3\[nH]c(=O)n([C@@H](C)[C@@H](C)C(=O)O)c(=O)n3Cc3ccc(Cl)cc3)ccc2o1 [Compound I-1351] | 7.39 |
| Cc1ccc(Cn2c(=O)n([C@@H](C)[C@@H](C)C(=O)O)c(=O)[nH]/c2=N\c2ccc3nc(C)ccc3c2)cc1 [Compound I-1352] | 7.59 |
| Cc1ccc(Cn2c(=O)n([C@@H](C)[C@@H](C)C(=O)O)c(=O)[nH]/c2=N\c2ccc3oc(C)cc3c2)cc1 [Compound I-1353] | 7.39 |
| CCCc1ccc(/N=c2\[nH]c(=O)n(C[C@H](C)C(=O)O)c(=O)n2Cc2ccc(Cl)cc2)cc1OC [Compound I-1354] | 6.86 |
| COc1cc(/N=c2\[nH]c(=O)n(CCC(=O)O)c(=O)n2Cc2ccc(Cl)cc2)ccc1CC(C)C [Compound I-1355] | 6.75 |
| Cc1ccc(Cn2c(=O)n(CCC(=O)O)c(=O)[nH]/c2=N\c2ccc(Oc3ccc(C)nc3)cc2)cc1 [Compound I-1356] | 7.32 |
| Cc1ccc(Oc2ccc(/N=c3\[nH]c(=O)n(CCC(=O)O)c(=O)n3Cc3ccc(Cl)cc3)cc2)cn1 [Compound I-1357] | 7.60 |
| Cc1ccc(Oc2ccc(/N=c3\[nH]c(=O)n(CC(C)(C)C(=O)O)c(=O)n3Cc3ccc(Cl)cc3)cc2)cn1 [Compound I-1358] | 8.05 |
| Cc1ccc(Cn2c(=O)n(C[C@H](C)C(=O)O)c(=O)[nH]/c2=N\c2ccc(CC(C)C)nc2)cc1 [Compound I-1359] | 6.14 |
| CCCc1ccc(/N=c2\[nH]c(=O)n(C[C@H](C)C(=O)OC)c(=O)n2Cc2ccc(C)cc2)cc1OC [Compound I-1360] | 7.49 |

| SMILES | pIC50 |
| --- | --- |
| CCOC(=O)CCn1c(=O)[nH]/c(=N\c2ccc(CC(C)C)c(OC)c2)n(Cc2ccc(C)cc2)c1=O [Compound I-1361] | 7.82 |
| COc1cc(/N=c2\[nH]c(=O)n(CCC(=O)O)c(=O)n2Cc2ccc(C)cc2)ccc1CC(C)C [Compound I-1362] | 7.27 |
| COC(=O)[C@H](C)[C@H](C)n1c(=O)[nH]/c(=N\c2ccc(CC(C)C)c(OC)c2)n(Cc2ccc(Cl)cc2)c1=O [Compound I-1363] | 7.25 |
| COC(=O)[C@H](C)[C@H](C)n1c(=O)[nH]/c(=N\c2ccc(CC(C)C)c(OC)c2)n(Cc2ccc(C)cc2)c1=O [Compound I-1364] | 7.37 |
| CCCc1ccc(/N=c2\[nH]c(=O)n(C[C@H](C)C(=O)O)c(=O)n2Cc2ccc(C)cc2)cc1OC [Compound I-1365] | 7.03 |
| COc1cc(/N=c2\[nH]c(=O)n([C@@H](C)[C@@H](C)C(=O)O)c(=O)n2Cc2ccc(Cl)cc2)ccc1CC(C)C [Compound I-1366] | 7.70 |
| COc1cc(/N=c2\[nH]c(=O)n([C@@H](C)[C@@H](C)C(=O)O)c(=O)n2Cc2ccc(C)cc2)ccc1CC(C)C [Compound I-1367] | 7.85 |
| COC(=O)CCCn1c(=O)[nH]/c(=N\c2ccc(Oc3ccc(C)nc3)cc2)n(Cc2ccc(Cl)cc2)c1=O [Compound I-1368] | 8.30 |
| CCOC(=O)CCCn1c(=O)[nH]/c(=N\c2ccc(Oc3ccc(C)nc3)cc2)n(Cc2ccc(C)cc2)c1=O [Compound I-1369] | 8.52 |
| COC(=O)[C@@H](C)Cn1c(=O)[nH]/c(=N\c2ccc(CC(C)C)c(Cl)c2)n(Cc2ccc(Cl)cc2)c1=O [Compound I-1370] | 7.72 |
| COC(=O)[C@@H](C)Cn1c(=O)[nH]/c(=N\c2ccc(CC(C)C)c(Cl)c2)n(Cc2ccc(C)cc2)c1=O [Compound I-1371] | 8.05 |
| CC(C)Cc1ccc(/N=c2\[nH]c(=O)n(C[C@H](C)C(=O)O)c(=O)n2Cc2ccc(Cl)cc2)cc1Cl [Compound I-1372] | 8.30 |
| COC(=O)[C@H](C)[C@H](C)n1c(=O)[nH]/c(=N\c2ccc(Oc3ccc(C)nc3)cc2)n(Cc2ccc(Cl)cc2)c1=O [Compound I-1375] | 8.30 |
| COC(=O)[C@@H](C)[C@@H](C)n1c(=O)[nH]/c(=N\c2ccc(Oc3ccc(C)nc3)cc2)n(Cc2ccc(Cl)cc2)c1=O [Compound I-1376] | 7.82 |
| COC(=O)[C@H](C)[C@H](C)n1c(=O)[nH]/c(=N\c2ccc(Oc3cccnc3)cc2)n(Cc2ccc(Cl)cc2)c1=O [Compound I-1377] | 8.15 |
| COC(=O)[C@H](C)[C@H](C)n1c(=O)[nH]/c(=N\c2ccc(OC3CCC3)cc2)n(Cc2ccc(Cl)cc2)c1=O [Compound I-1378] | 7.92 |
| COC(=O)[C@H](C)[C@H](C)n1c(=O)[nH]/c(=N\c2ccc(OC3CCC3)cc2)n(Cc2ccc(C)cc2)c1=O [Compound I-1379] | 8.00 |
| COC(=O)[C@H](C)[C@H](C)n1c(=O)[nH]/c(=N\c2ccc(N3CCCCC3)cc2)n(Cc2ccc(Cl)cc2)c1=O [Compound I-1380] | 7.59 |
| COC(=O)[C@H](C)[C@H](C)n1c(=O)[nH]/c(=N\c2ccc(N3CCCCC3)cc2)n(Cc2ccc(C)cc2)c1=O [Compound I-1381] | 7.70 |
| CCc1nc2ccc(/N=c3\[nH]c(=O)n(C[C@H](C)C(=O)O)c(=O)n3Cc3ccc(Cl)cc3)cc2o1 [Compound I-1382] | 6.59 |
